Assay results reported in patent US20230009608A1, “GRK2 INHIBITORS AND USES THEREOF” (Cygnal Therapeutics, Inc., priority 2020, published 2023).
Like-named read-outs stand apart in the source and are kept apart here.

What was measured:
GRK2 = biological target: T1, GRK2 (Homo sapiens, UniProt P25098); test: ADPGlo GRK2 Inhibition Assay (Example 8); assay type: biochemical; conditions: read-out: A: Enzymatic GRK2: IC50 (nM) (Example 8)
T1 construct: purchased SignalChem A14-10G
T1 sequence (P25098 1-689): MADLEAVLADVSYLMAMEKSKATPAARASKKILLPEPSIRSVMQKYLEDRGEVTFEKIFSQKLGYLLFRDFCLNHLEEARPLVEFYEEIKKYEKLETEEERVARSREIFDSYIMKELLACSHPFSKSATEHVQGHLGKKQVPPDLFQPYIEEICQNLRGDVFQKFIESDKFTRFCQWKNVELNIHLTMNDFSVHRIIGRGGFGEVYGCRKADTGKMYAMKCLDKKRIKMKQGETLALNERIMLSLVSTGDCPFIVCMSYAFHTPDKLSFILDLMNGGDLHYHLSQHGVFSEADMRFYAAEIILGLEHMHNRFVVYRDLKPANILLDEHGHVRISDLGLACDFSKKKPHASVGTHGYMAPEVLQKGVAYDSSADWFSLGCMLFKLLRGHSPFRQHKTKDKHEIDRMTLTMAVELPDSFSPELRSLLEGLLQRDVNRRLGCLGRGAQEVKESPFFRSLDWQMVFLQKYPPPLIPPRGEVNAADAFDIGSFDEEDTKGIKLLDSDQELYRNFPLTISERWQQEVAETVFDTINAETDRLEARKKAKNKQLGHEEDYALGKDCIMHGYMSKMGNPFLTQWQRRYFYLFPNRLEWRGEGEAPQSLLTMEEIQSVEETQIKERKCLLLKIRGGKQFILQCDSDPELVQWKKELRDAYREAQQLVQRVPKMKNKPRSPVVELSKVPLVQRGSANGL
In short: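 GRK2 (15 nM 2× enzyme solution) was preincubated 15 min with compound, then reacted 180 min at room temperature with 2× mix of 20 μM ATP plus GRKtide in HEPES pH 7.5, MgCl2, Tween-20, DTT. ADP was detected by ADP-Glo luminescence. Percent inhibition was normalised to enzyme and no-enzyme controls, with dose-response curves from threefold dilutions starting at 100 μM.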

[1] = system: PAXF1657 control empty vector cell line; test: 7-day proliferation assay, PAXF1657 control empty vector cell line (Example 9); assay type: cell-based; conditions: 168 h; Cell Line: PAXF1657 empty vector (EV) cell line; 7-day; read-out: C: 7-day proliferation assay: IC50 GeoMean
In short: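 Read-out is CellTiter-Glo luminescence after 7 days of continuous exposure, with compound re-dosed in fresh medium at day 3. Cells were seeded at 500/well and treated across 30 μM-0.0002 μM (10 points, 0.3% DMSO); baseline viability plates were read at compound addition.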

[2] = Enzyme Assay A, ADPGlo (Example 8)

Structure (SMILES) | IC50 (GRK2; ADPGlo GRK2 enzyme assay) [nM] | IC50 (GRK2; [2]) [nM] | IC50 [1] [nM]
O=C(NCc1nccn1C(F)F)c1cccc(NCc2nnc(-c3ccncc3)[nH]2)c1 | – | 14 | 2880
Cn1c(CNc2cccc(C(=O)NC(CO)c3ccc(F)cc3F)c2)nnc1-c1ccncn1 (centres unmarked) | 83.1 | – | 3070
O=C(NCc1ccccc1-n1cncn1)c1cccc(NCc2nnc(-c3ccncc3)[nH]2)c1 | – | 19 | > 10000
Cn1ncc(Br)c1CNC(=O)c1cccc(NCc2nnc(-c3ccncn3)n2C)c1 | – | 22 | > 10000
Cn1c(CNc2cccc(C(=O)NCc3cnn4c3CCCC4)c2)nnc1-c1ccncn1 | 71.6 | – | > 24800
CC(NC(=O)c1cccc(NCc2nnc(-c3ccncn3)n2C)c1)c1ccsc1 (centres unmarked) | – | 4.9 | > 10000
Cc1ccc(C#N)cc1CNC(=O)c1cccc(NCc2nnc(-c3ccncc3)n2CCO)c1 | 4.82 | – | > 4600
CC(NC(=O)c1cccc(NCc2nnc(-c3ccncn3)n2C)c1)c1ccncc1F (centres unmarked) | – | 15 | 103
COc1cccc([C@@H](C)NC(=O)c2cccc(NCc3nnc4n3CCOc3cnccc3-4)c2)c1 | 15.9 | – | > 3650
COc1cccc([C@@H](C)NC(=O)c2cccc(NCc3nnc(-c4ccncc4)n3CCO)c2)c1 | 99.4 | – | > 30000
CC(C)n1cnnc1CNC(=O)c1cccc(NCc2nnc(-c3ccncc3)[nH]2)c1 | – | 210 | > 10000
Cn1cc(C(NC(=O)c2cccc(NCc3nnc(-c4ccncn4)n3C)c2)c2ccccc2)cn1 (centres unmarked) | – | 41 | 66.4
COc1cccc(F)c1C(C)NC(=O)c1cccc(NCc2nnc(-c3ccncn3)n2C)c1 (centres unmarked) | – | 27 | > 10000
CNS(=O)(=O)c1cccc(F)c1CNC(=O)c1cccc(NCc2nnc(-c3ccncc3)[nH]2)c1 | – | 5.38 | 3620
C#Cc1ccc(OS(=O)(=O)F)cc1CNC(=O)c1cccc(NCc2nnc(-c3ccncc3)[nH]2)c1 | – | 28.4 | 7440
Cn1c(CNc2cccc(C(=O)NCc3cccc(C(F)F)c3)c2)nnc1-c1ccncn1 | – | 22 | > 10000

Structure (SMILES) | IC50 (GRK2; ADPGlo GRK2 enzyme assay) [nM] | IC50 (GRK2; [2]) [nM] | IC50 [1] [nM]
COCCOc1ccc(CNC(=O)c2cccc(NCc3nnc(-c4ccncn4)n3C)c2)cc1 | – | 20.4 | > 14200
Cn1c(CNc2cccc(C(=O)NC3C(=O)NCc4ccccc43)c2)nnc1-c1ccncn1 (centres unmarked) | 38.1 | – | > 30000
Cn1c(CNc2cccc(C(=O)NC3CC(=O)c4ccccc43)c2)nnc1-c1ccncn1 (centres unmarked) | 19 | – | 867
CNc1ncccc1CNC(=O)c1cccc(NCc2nnc(-c3ccncn3)n2C)c1 | 18.3 | – | 1630
Cn1ccc(CNC(=O)c2cccc(NCc3nnc(-c4ccncn4)n3C)c2)n1 | – | 60 | 1290
O=C(NCc1ccncc1)c1cccc(NCc2nnc(-c3ccncc3)[nH]2)c1 | – | 12 | 5720
O=C(N[C@@H]1COc2cc(F)ccc21)c1cccc(NCc2nnc(-c3ccncc3)[nH]2)c1 | – | 7.92 | 607
COc1cccc2c1OCC[C@@H]2NC(=O)c1cccc(NCc2nnc(-c3ccncn3)n2C)c1 | – | 87.5 | 470
CCc1cccnc1CNC(=O)c1cccc(NCc2nnc(-c3ccncn3)n2C)c1 | 22.6 | – | 4510
Cc1ccc2c(c1)OCC[C@@H]2NC(=O)c1cccc(NCc2nnc(-c3ccncn3)n2C)c1 | – | > 1000 | 2580
Cn1c(CNc2cccc(C(=O)NCc3cccnc3)c2)nnc1-c1ccncn1 | – | 540 | > 10000
CNS(=O)(=O)c1cccc(F)c1CNC(=O)c1cccc(NCc2nnc3n2CCOc2cnccc2-3)c1 | – | 85.3 | 2840
Cn1c(CNc2cccc(C(=O)NCc3ccccc3NS(C)(=O)=O)c2)nnc1-c1ccncn1 | 32.1 | – | > 30000
CC(NC(=O)c1cccc(NCc2nnc(-c3ccncn3)n2C)c1)c1ccn(C)n1 (centres unmarked) | – | 27 | 2150
COc1cccc([C@@H](C)NC(=O)c2cccc(NCc3nnc(-c4ccncc4F)n3C)c2)c1 | 181 | – | > 30000
Cn1c(CNc2cccc(C(=O)NCc3cc(Cl)ccn3)c2)nnc1-c1ccncn1 | – | 45 | > 30000

Continued, in another order:

IC50 (GRK2; ADPGlo GRK2 enzyme assay) [nM] | IC50 (GRK2; [2]) [nM] | Structure (SMILES) | IC50 [1] [nM]
53.3 | – | CN(C)CCNc1ccccc1CNC(=O)c1cccc(NCc2nnc(-c3ccncn3)n2C)c1 | > 30000
17.7 | – | Cn1c(CNc2cccc(C(=O)N[C@H](C#N)c3cc(F)ccc3F)c2)nnc1-c1ccncn1 | 808
– | 9.99 | Cc1ccc2c(c1)OCC[C@H]2NC(=O)c1cccc(NCc2nnc(-c3ccncn3)n2C)c1 | 648
– | 21 | CC(NC(=O)c1cccc(NCc2nnc(-c3ccncn3)n2C)c1)c1ccc2c(c1)CC(=O)N2C (centres unmarked) | 158
61 | – | Cc1nccnc1C(C)NC(=O)c1cccc(NCc2nnc(-c3ccncn3)n2C)c1 (centres unmarked) | > 12500
– | 22.4 | O=C(N[C@@H]1COc2cc(F)ccc21)c1cccc(NCc2nnc(-c3ccncn3)n2CCO)c1 | 25.4
– | 67 | CCCC(NC(=O)c1cccc(NCc2nnc(-c3ccncn3)n2C)c1)c1ccccn1 (centres unmarked) | 1220
– | 20 | COc1ccccc1CNC(=O)c1cccc(NCc2nnc(-c3ccncn3)n2C)c1 | 1900
35.3 | – | CCOc1ccc(CNC(=O)c2cccc(NCc3nnc(-c4ccncn4)n3C)c2)cc1 | 1200
– | 3.35 | CCCn1c(CNc2cccc(C(=O)N[C@@H]3COc4cc(F)ccc43)c2)nnc1-c1ccncn1 | > 30000
– | 11 | Cn1c(CNc2cccc(C(=O)NCc3cccc4ncccc34)c2)nnc1-c1ccncn1 | > 10000
18.4 | – | Cn1c(CNc2cccc(C(=O)NCc3ccccc3CO)c2)nnc1-c1ccncn1 | 1560
30.1 | – | COc1ccc(CNC(=O)c2cccc(NCc3nnc(-c4ccncn4)n3C)c2)cc1F | 6650
– | 69 | Cn1c(CNc2cccc(C(=O)NCc3ncccc3F)c2)nnc1-c1ccncn1 | 164
– | 20 | O=C(NC1CCCn2ncnc21)c1cccc(NCc2nnc(-c3ccncc3)[nH]2)c1 (centres unmarked) | > 10000
7.07 | – | Cc1ccc(C#N)cc1CNC(=O)c1ccnc(NCc2nnc(-c3ccncn3)n2C)c1 | 1410

IC50 (GRK2; ADPGlo GRK2 enzyme assay) [nM] | IC50 (GRK2; [2]) [nM] | Structure (SMILES) | IC50 [1] [nM]
– | 94 | COc1ccccc1[C@H](C)NC(=O)c1cccc(NCc2nnc(-c3ccncn3)n2C)c1 | > 10000
52.9 | – | Cn1ccnc1C(NC(=O)c1cccc(NCc2nnc(-c3ccncn3)n2C)c1)C1CC1 (centres unmarked) | 3750
– | 27 | Cn1c(CNc2cccc(C(=O)NCc3cocn3)c2)nnc1-c1ccncn1 | > 30000
6.03 | – | COc1ccccc1C(C#N)NC(=O)c1cccc(NCc2nnc(-c3ccncn3)n2C)c1 (centres unmarked) | 468
54.7 | – | C[C@@H](NC(=O)c1cccc(NCc2nnc(-c3ccncc3F)n2C)c1)c1ncccc1Cl | 135
– | 12 | O=C(NC1CCCc2nccnc21)c1cccc(NCc2nnc(-c3ccncc3)[nH]2)c1 (centres unmarked) | 736
– | 28 | Cc1nc(C)c(CNC(=O)c2cccc(NCc3nnc(-c4ccncc4)[nH]3)c2)nc1C | > 10000
– | 15 | Cc1cccc2c1OCC[C@@H]2NC(=O)c1cccc(NCc2nnc(-c3ccncn3)n2C)c1 | > 10000
– | 18 | CCn1nc(C)c(CNC(=O)c2cccc(NCc3nnc(-c4ccncc4)[nH]3)c2)n1 | 3110
18.2 | – | Cn1c(CNc2cccc(C(=O)NC3CCS(=O)(=O)c4ccccc43)c2)nnc1-c1ccncn1 (centres unmarked) | 2790
55.7 | – | Cn1c(CNc2cccc(C(=O)NCc3ccccc3Cn3cncn3)c2)nnc1-c1ccncn1 | 7410
– | 17 | O=C(NCc1cncc(F)c1)c1cccc(NCc2nnc(-c3ccncc3)[nH]2)c1 | > 10000
– | 17 | Cc1cc(CNC(=O)c2cccc(NCc3nnc(-c4ccncn4)n3C)c2)n(C)n1 | 4150
48.9 | – | Cn1c(CNc2cccc(C(=O)NCc3ccccc3OCCO)c2)nnc1-c1ccncn1 | > 6450
– | 37 | CC1CC(NC(=O)c2cccc(NCc3nnc(-c4ccncc4)[nH]3)c2)c2ncnn21 (centres unmarked) | > 10000
– | 21.9 | Cn1c(CNc2cccc(C(=O)N[C@H]3COCc4c(Cl)cccc43)c2)nnc1-c1ccncc1F | 245
